Source: US20100050299A1, “POST-HARVEST TREATMENT OF FRUITS WITH AN ANTIFUNGAL COMPOSITION” (priority 2006, published 2010)

Tests used:
[1] = system: Colletotridcum musae CBS19231; assay: Treatment of bananas, Neocryl and xanthan instead of Bond and Zipper (Example 5); type: in vivo; conditions: after 15 days; for wounds showing mould growth: 12 wounds; for Number of wounds showing mould growth/Total number of wounds: Neocryl 21.3 g/l and xanthan 1.0 g/l, 12 wounds (6 bananas with 2 wounds per banana)
Protocol: (§1) In this experiment organic bananas, Sabrosa® from the Dominican Republic, were used. The bananas were obtained from a local retailer in The Netherlands. The bananas were treated with spores of the phytopathogenic mould Colletotridcum musae CBS19231. The mould spores were obtained using well-known methods. The bananas were injured according to the method described by de Lapere de Bellaire and Dubois (1987). Bananas were wounded two times using a cork borer followed by contamination with approximately 2.5×10^4 mould spores of C. musae CBS19231 per wound. After incubation for 4 hours at room temperature, the bananas were dipped for one minute in one of the following compositions: a) no treatment (control 1), b) dipped in water (control 2), c) dipped in 1000 ppm natamycin, d) dipped in 240 mM of potassium phosphite, e) dipped in 1000 ppm of natamycin+240 mM of potassium phosphite. The experiment was executed in triplo; the natamycin and potassium phosphite solution were prepared using well-known methods. All compositions contained 0.1% (v/v) of the sticking agent Bond® (Loveland Industries Ltd.) and 0.14% (v/v) of the surfactant Zipper® (Asepta BV, The Netherlands). After this treatment the bananas were incubated in closed boxes at 21° C. at elevated humidity. Each day the bananas were judges visually on mould development.
The experiment described herein was executed as described in Example 1. However, in this experiment the sticking agent Bond® and the surfactant Zipper® were not used; instead Neocryl® (DSM) and xanthan were applied in a concentration of respectively 21.3 g/l and 1.0 g/l. In this experiment 12 wounds were made instead of 6 (2 wounds per banana; 6 bananas wounded).

[2] = system: Colletotridcum musae CBS19231; assay: Treatment of freshly harvested banana clusters, new wounds made with a knife at the stalk (Example 4); type: in vivo; conditions: for mould growth on banana clusters: after 15 days of incubation, 3 banana clusters; for Number of clusters showing severe mould growth/Total number of clusters: after 15 days, freshly harvested, 3 clusters, 2 wounds per cluster at the stalk
Protocol: as §1
(§2) In this experiment freshly harvested bananas were used. A few days after harvesting and the de-latexing treatment to remove latex which is leaking from the wounds using well-known methods, the bananas were infected with mould spores and treated as described in Example 1. For each composition, 3 clusters comprising 4 bananas per cluster were used (experiment done in triplo).
(§3) The experiment described in this example was done identically compared to the experiment described in Example 3, with the proviso that bananas were harvested and thereafter new wounds were made with a knife at the stalk of the banana clusters (2 wounds were made per cluster).

[3] = system: Colletotridcum musae CBS19231; assay: Treatment of freshly harvested banana clusters (Example 3); type: in vivo; conditions: for bananas of the clusters on which moulds were observed: after 15 days of incubation, 12 bananas; for Number of bananas showing mould growth/Total number of bananas: after 15 days, freshly harvested, 12 bananas (3 clusters with 4 bananas per cluster)
Protocol: as §1, §2

moulds on bananas = conditions: in vivo; cited from earlier work
[4] = system: Colletotridcum musae CBS19231; assay: Treatment of banana clusters wounded at the hand, Neocryl and xanthan instead of Bond and Zipper (Example 6); type: in vivo; conditions: for wounds with mould growth: after 15 days of incubation, 6 wounds; for Number of wounds showing mould growth/Total number of wounds: after 15 days, Neocryl 21.3 g/l and xanthan 1.0 g/l, 6 wounds (3 clusters, 2 wounds per cluster at the hand)
Protocol: as §1, §2, §3
The experiment described herein was executed as described in Example 4, with the proviso that the sticking agent Bond® and the surfactant Zipper® were replaced by Neocryl® (DSM) and xanthan in a concentration of respectively 21.3 g/l and 1.0 g/l. Three clusters comprising 4 bananas each were wounded two times at the hand of the cluster resulting in a total number of wounds of 6.

[5] = system: Colletotridcum musae CBS19231; assay: Treatment of bananas wounded with a cork borer and contaminated with mould spores, then dipped (Example 1); type: in vivo; conditions: for Number of wounds showing mould growth/Total number of wounds: after 15 days at 21° C., dipped one minute, 1000 ppm natamycin, 240 mM potassium phosphite, 6 wounds (3 bananas with 2 wounds per banana); for wounds showing mould growth: after 15 days, out of 6 wounds
Protocol: as §1

[6] = system: Colletotridcum musae CBS19231; assay: Treatment of bananas with wounds made with a knife at the stalk (Example 2); type: in vivo; conditions: for wounds/bananas with mould growth: after 15 days of incubation, 3 bananas, wound at the stalk; for Number of wounds showing mould growth/Total number of wounds: after 15 days, 3 wounds (3 bananas with 1 wound made at the stalk per banana)
Protocol: as §1
The experiment described in this example was done identically compared to the experiment described in Example 1, with the proviso that the wounds were made with a knife at the stalk of the bananas.

Molecule | wounds showing mould growth [1] [%] | Number of wounds showing mould growth/Total number of wounds [1] | mould growth on banana clusters [2] | Number of clusters showing severe mould growth/Total number of clusters [2] | bananas of the clusters on which moulds were observed [3] | Number of bananas showing mould growth/Total number of bananas [3] | control of moulds on bananas (moulds on bananas) | spectrum of action (moulds on bananas) | wounds with mould growth [4] | Number of wounds showing mould growth/Total number of wounds [4] | Number of wounds showing mould growth/Total number of wounds [5] | wounds showing mould growth [5] | wounds/bananas with mould growth [6] | Number of wounds showing mould growth/Total number of wounds [6]
C[C@@H]1C/C=C/C=C/C=C/C=C/[C@H](O[C@@H]2O[C@H](C)[C@@H](O)[C@H](N)[C@@H]2O)C[C@@H]2O[C@](O)(C[C@@H](O)C[C@H]3O[C@@H]3/C=C/C(=O)O1)C[C@H](O)[C@H]2C(=O)O [Composition c, natamycin] | 50 | 6/12 | in all of the natamycin treated banana clusters | 3/3 | all bananas | 12/12 | not sufficiently active | broad spectrum action | all wounds | 6/6 | 6/6 | 6 | 2 of 3 | 2/3
potassium phosphite [Composition d] | 25 | 3/12 | 2 of the 3 | 2/3 | all bananas | 12/12 |  |  | all wounds | 6/6 | 5/6 | 5 out of 6 | all wounds | 3/3
